Test system: ovarian cancers
Experiment: Kaplan Meier overall survival on platinum therapy against gene copy number at 5q1x and 3q2x (control analysis)
Assay type: in vivo
Conditions: MAP3K1, IL6ST, PIK3R1 copy number; FIGS. 3F-H
Description: We then asked whether loss of the PARP15 and PARP8 would also correlate with response or lack of response to PARPi therapy. For this analysis we looked at DNA copy number determined using next-generation sequencing of a panel of 592 genes. See Example 1. […] Without being bound by theory, loss at a one gene is highly correlated with loss of neighboring genes. As a control, we repeated the analysis shown in FIGS. 3C-E but used response to platinum compounds instead of PARPi, specifically carboplatin. […] As a control, we repeated the analysis shown in FIGS. 3I-K but used response to platinum compounds instead of PARPi.

Q: For `N.N.O=C([O-])C1(C(=O)[O-])CCC1.[Pt+2]` [carboplatin], which “response to platinum therapy (overall survival) by gene copy number at 5q1x” value is on record?
A: loss of copy number at 5q1x was correlated of positive benefit of platinum therapy

Reference: US20240060139A1, “TREATMENT RESPONSE SIGNATURES” (Caris MPI, Inc., priority 2020, published 2024)
